The text below walks through data of patent publication US20030170297A1, “Lipid-based drug delivery systems containing phospholipase a2 degradable lipid derivatives for topical application to the skin” (priority 2000, published 2003).

Assay [1] addresses T1, Snake venom PLA2 (Agkistrodon piscivorus piscivorus) (Agkistrodon piscivorus piscivorus, UniProt P51972).
T1 construct: This PLA2 enzyme belongs to the class of low-molecular weight 14 kD secretory enzymes; from tissue; host or cells: snake venom of Agkistrodon piscivorus piscivorus
T1 sequence (P51972 1-123): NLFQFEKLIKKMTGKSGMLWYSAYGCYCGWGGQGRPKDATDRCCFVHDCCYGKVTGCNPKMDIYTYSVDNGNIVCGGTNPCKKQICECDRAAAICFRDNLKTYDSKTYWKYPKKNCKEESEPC
Description: PLA2-controlled calcein release across non-hydrolysable D-O-SPC target membrane (micelle or liposome carriers). It counts as biochemical. The protocol:
Multilamellar model membrane target liposomes were made in the presence of fluorescent calcein in a self-quenching concentration of 20 mM by hydrating a film of 1,2-O-dioctadecyl-sn-glycero-3-phosphatidylcholines (D-O-SPC) in a HEPES buffer solution at pH=7.5 for one hour at 10° C. above the phase transition temperature (Tm=55° C.). Unilamellar liposomes were made by extruding the multilamellar liposomes ten times through two stacked 100 nm polycarbonate filters. The unilamellar liposomes were rapidly cooled to a temperature below the transition temperature, and the calcein-containing liposomes were separated from free calcein using a chromatographic column packed with Sephadex G-50. […] (1-O-DPPE-PEG350), di-octadecanoyl-sn-glycero-3-phosphoethanolamine-N-[methoxy(polyethylene glycol)-750 (DSPE-PEG750). were prepared as described in example 6. Calcein release from the target liposomes is determined by measuring the fluorescent intensity at 520 nm after excitation at 492 nm.
The concentrations of D-O-SPC and polymer-lipid micelles were 25 μM. Snake venom PLA2 (Agkistrodon piscivorus piscivorus) was added (25 nM) to initiate the hydrolytic reaction leading to instant formation of the polymer-lyso-1-O-DPPE and the free fatty acid hydrolysis products. […] The percentage of calcein released is determined as described in example 3.
The experimental model system consists of a negatively charged liposome carrier and a model target membrane. The carrier is a 100 nm unilamellar liposome made of dipalmitoyl phosphatidylcholine lipids (DPPC) with small amounts (2.5 mol %) of negatively charged lipid of the type dipalmitoyl phosphatidylethanolamine (DPPE)—PEG2000. The target membrane is another liposome made of 1,2-O-dioctadecyl-sn-glycero-phosphatidylcholine (D-O-SPC) which is a phospholipid where the acyl linkages of the stearoyl chains are ether bonds. In contrast to DPPC, D-O-SPC is inert towards PLA2-catalysed hydrolysis thereby mimicking the stability of an intact target cell membrane toward degradation by its own enzymes. This experimental assay, which permits simultaneous as well as separate investigation of the effect of destabilisers at the carrier liposomes and the effect of enhancers at the target membrane, involves entrapment of a water-soluble fluorescent calcein model drug in a self-quenching concentration, in the interior of the non-hydrolysable target liposome, rather than in the carrier liposome. The enhanced level of extracellular PLA2 at the target membrane can then be simulated by adding extracellular PLA2 to initiate the hydrolytic reaction in a suspension of the carrier and target liposomes. The permeation of calcein across the D-O-SPC target membrane is subsequently monitored by the increase in fluorescence. In order to investigate the effect of the presence of small amounts of negatively charged lipids in the carrier liposome, a similar experiment was performed with conventional bare DPPC liposomes. Furthermore, in order to compare and discriminate the permeability enhancing effect of lyso-phospholipids from that of free fatty acids, experiments without enzymes were carried out where lyso-phospholipids and free fatty acids were added simultaneously or separately to the target liposomes.
DPPC, DCPC, D-O-SPC, and DPPE-PEG2000 were obtained from Avanti Polar Lipids. Purified snake venom PLA2 (Agkistrodon piscivorus piscivorus) was a generous gift from dr. R. L. Biltonen. This PLA2 enzyme belongs to the class of low-molecular weight, 14 kD secretory enzymes which display structural similarity to human extracellular phospholipase A2.

Assay [2] deals with T2, phospholipase A2 (PLA2 from Agikistrodon piscivorus piscivorus) (Agkistrodon piscivorus piscivorus, UniProt P51972).
T2 construct: This PLA2 enzyme belongs to the class of low-molecular weight 14 kD secretory enzymes; from tissue; host or cells: snake venom of Agkistrodon piscivorus piscivorus
T2 sequence (P51972 1-123): T1 sequence (P51972 1-123)
Put plainly: PLA2 reaction time profile, lag-time and HPLC percent hydrolysis of unilamellar liposomes. The class given is biochemical. The following applies: FIG. 3, liposomes composed of 1-O-DPPC, after PLA2 addition.
Description: Phospholipase A2 reaction profile and lag time measurements Purified snake-venom phospholipase A2 (PLA2 from Agikistrodon piscivorus piscivorus) has been isolated according to the procedure of Maraganore et al., J. Biol. Chem. 259, 13839-13843. […] Assay conditions for the PLA2 reaction time profile shown in FIG. 2 and the lag-time and percent hydrolysis reported in Table 1 were: 0.15 mM unilamellar liposomes, 150 nM PLA2, 150 mM KCL, 10 mM HEPES (pH 7.5), 1 mM NaN3, 30 μM CaCl2, and 10 μM EDTA.
Lag-time and percent hydrolysed 1-O-DPPC at 41° C. as determined by HPLC. The lipid concentration was 0.150 mM in a 10 mM HEPES-buffer (pH=7.5).
The catalytic reaction was initiated by adding 8.9 μL of a 42 μM PLA2 (150 nM) stock solution to 2.5 ml of the thermostated liposome suspension (0.150 mM) equilibrated for 800 sec prior to addition of PLA2. The characteristic lag-burst behaviour of PLA2 towards the liposomes is signalled by a sudden increase in the intrinsic fluorescence from PLA2 at 340 nm after excitation at 285 nm followed by a concomitant decrease in the 90° light scattering from the lipid suspension (Hønger et al., Biochemistry 35, 9003-9006). […] The turnover of the PLA2 catalysed lipid hydrolysis of 1-O-DPPC to lyso-1-O-PPC was measured by HPLC (see Table 1). […]

The nature of assay [3]: Calcein release across target membrane on adding lyso-phospholipid and fatty acid in the absence of PLA2. The following applies: absence of PLA2, 25 μM target membranes, 39° C., FIG. 12.
Description: The experimental model system consists of a negatively charged liposome carrier and a model target membrane. The carrier is a 100 nm unilamellar liposome made of dipalmitoyl phosphatidylcholine lipids (DPPC) with small amounts (2.5 mol %) of negatively charged lipid of the type dipalmitoyl phosphatidylethanolamine (DPPE)—PEG2000. The target membrane is another liposome made of 1,2-O-dioctadecyl-sn-glycero-phosphatidylcholine (D-O-SPC) which is a phospholipid where the acyl linkages of the stearoyl chains are ether bonds. In contrast to DPPC, D-O-SPC is inert towards PLA2-catalysed hydrolysis thereby mimicking the stability of an intact target cell membrane toward degradation by its own enzymes. […] The permeation of calcein across the D-O-SPC target membrane is subsequently monitored by the increase in fluorescence. […]
Multilamellar target liposomes in the presence of fluorescent calcein in a self-quenching concentration of 20 mM were made by hydrating a film of D-O-SPC in a HEPES buffer solution at pH=7.5 for one hour at 10° C. above the phase transition temperature Tm=55° C. […] Calcein release from the target liposomes is determined by measuring the fluorescent intensity at 520 nm after excitation at 492 nm. […]
In assay [4] the target is T3, phospholipase A2 (A. piscivorus piscivorus) (Agkistrodon piscivorus piscivorus, UniProt P51972).
T3 sequence (P51972 1-123): T1 sequence (P51972 1-123)
The protocol:
The hydrolysis of micelles composed DSPE-PEG750 was followed by analysis of the amount of stearic acid generated. The catalytic reaction was initiated by adding 8.9 μL of a 42 μM PLA2 (150 nM) stock solution to 2.5 ml a thermostated micelle suspension of DSPE-PEG750 (0.150 mM) equilibrated at 45° C. for 600 seconds prior to addition of PLA2. The characteristic burst behaviour of PLA2 towards the micelles is signalled by a sudden increase in the intrinsic fluorescence from PLA2 at 340 nm after excitation at 285 nm followed by a concomitant decrease in the 90° light scattering from the lipid suspension (Hønger et al., Biochemistry 35, 9003-9006). Samples for HPLC analysis of the amount of stearic acid generated were taken before adding PLA2 and 100 sec after the observed lag-time. […] HPLC analysis was made using a 5 μm diol column, a mobile phase composed of chloroform/methanol/water (730:230:30, v/v) and an evaporative light scattering detector (see example 2).

Where “and” joins values, the source holds several entries; their conditions need not be identical. Equal values may be shown once.

Take “1—hexadecyl-2-hexadecanoyl-sn-glycero-3-phosphoethanolamine-N-[methoxy(poly-ethylene glycol)-2000] [DPPE-PEG2000]”: the “rate of release of calcein across target membrane versus bare DPPC carriers” value in assay [1] (DPPC + 2.5 mol % DPPE-PEG2000 carriers, 37° C.) is reported as “dramatically enhanced”. In assay [1] (DPPC carrier liposomes with 2.5 mol % DPPE-PEG2000, 37° C.), the “change of lag time versus bare DPPC carriers” value is on record as “dramatic decrease in the lag time”.

Turning to `CCCCCCCCCCCCCCCCOC[C@H](COP(=O)([O-])OCC[N+](C)(C)C)OC(=O)CCCCCCCCCCCCCCC` [1-O-DPPC], in assay [2], the “amount of 1-O-DPPC after the lag-burst (HPLC; 100% before PLA2)” value was determined as 21%.

In the case of `CCCCCCCCCCCCCCCCCCOC[C@H](COP(=O)([O-])OCC[N+](C)(C)C)OCCCCCCCCCCCCCCCCCC` [D-O-SPC, 1,2-O-dioctadecyl-sn-glycero-3-phosphatidylcholines], the “behaviour towards PLA2-catalysed hydrolysis” value in assay [1] (target membrane lipid) is “inert”.

On to `CCCCCCCCCC(=O)OC[C@H](COP(=O)([O-])OCC[N+](C)(C)C)OC(=O)CCCCCCCCC` [DCPC, didecanoyl phosphatidylcholine], for which the “calcein release across target membrane with short-chain phospholipid in carrier PEG-liposomes” value in assay [1] (small amount of DCPC in carrier PEG-liposomes, FIG. 11a) is recorded as “very fast”.

On to `CC(C)CCC[C@@H](C)[C@H]1CC[C@H]2[C@@H]3CC=C4C[C@@H](O)CC[C@]4(C)[C@H]3CC[C@]12C` [cholesterol], for which the “effect on extracellular PLA2 activity” value in assay [1] (large amount (≈20 mol %) incorporated into liposomes, data not shown) is listed as “deactivated”; in assay [1] (small amount (≈3 mol %) in liposomes), “activates”.

Take `CCCCCCCCCCCCCCCC(=O)O` [fatty acid, palmitic acid]: in assay [3], the “rate of calcein release across the target membrane, added separately” value was “increased rate of calcein release”.

On to “di-octadecanoyl-sn-glycero-3-phosphoethanolamine-N-[methoxy(polyethylene glycol)-750 [DSPE-PEG750]”, for which the “amount of stearic acid generated by hydrolysis” value in assay [4] (0.150 mM DSPE-PEG750 micelles, 150 nM PLA2, 45° C.) is 0.156 mM and 0.157 mM. The “hydrolysis of DSPE-PEG750 to lyso-DSPE-PEG750 and stearic acid” value in assay [4] (0.150 mM micelles, 150 nM PLA2, 45° C., 100 sec after lag time) worked out at 100%. In addition, the observed lag time in assay [4] (DSPE-PEG750 micelles 0.150 mM, 45° C.) was found to be 10 s.
